The values that follow come from patent US10906897B2, “Microbiocidal heterobicyclic derivatives” (priority 2015, dated 2021).

A word on the melting point: it is the temperature, or range, at which the solid turns liquid.

SMILES strings stand for the structures. Bounds are passed on as bounds.

The subject of data set [1] is Botryotinia fuckeliana (Botrytis cinerea). In words: Botryotinia fuckeliana (Botrytis cinerea) / liquid culture (Gray mould). Particulars: growth inhibition photometrically 3-4 days after application, compared to untreated control. The class given is cell-based.
Data set [2] concerns Monographella nivalis (Microdochium nivale). The data set can be described thus: Monographella nivalis (Microdochium nivale) / liquid culture (foot rot cereals). Particulars: 96 h, growth inhibition photometrically 4-5 days after application, compared to untreated control. The class given is cell-based.
The subject of another data set is Fusarium culmorum. The data set can be described thus: microbe, parasite or virus in culture. The class given is cell-based. Particulars: read-out: control of Fusarium culmorum.
Data set [3] relates to Magnaporthe grisea (Pyricularia oryzae). In words: whole plant or invertebrate. The format is in vivo. Particulars: foliar, read-out: control of Magnaporthe grisea.
The test system of data set [4] is Glomerella lagenarium (Colletotrichum lagenarium). In words: Glomerella lagenarium (Colletotrichum lagenarium) / liquid culture (Anthracnose). The class given is cell-based. As to conditions: Colletotrichum orbiculare, growth inhibition photometrically 3-4 days after application, compared to untreated control.
The test system of another data set is Gaeumannomyces graminis. In words: Gaeumannomyces graminis / liquid culture (Take-all of cereals). As to conditions: growth inhibition photometrically 4-5 days after application, compared to untreated control. The class given is cell-based.
The subject of data set [5] is Magnaporthe grisea (Pyricularia oryzae). In words: microbe, parasite or virus in culture. The class given is cell-based. Particulars: read-out: control of Magnaporthe grisea.
In a further data set the test system is Sclerotinia sclerotiorum. The data set can be described thus: Sclerotinia sclerotiorum / liquid culture (cottony rot). As to conditions: read-out: control of Sclerotinia sclerotiorum.

Experimental for Sclerotinia sclerotiorum: Sclerotinia sclerotiorum/Liquid Culture (Cottony Rot)
Mycelia fragments of a newly grown liquid culture of the fungus are directly mixed into 5 nutrient broth (Vogels broth). After placing a (DMSO) solution of test compound into a microtiter plate (96-well format) the nutrient broth containing the fungal material is added. The test plates are incubated at 24° C. and the inhibition of growth is determined photometrically 3-4 days after application.

Turning to `CC1(C)N=C(c2cnc3c(F)cccn23)c2cccc(F)c2C1(C)C` [Compound E-6, 5-fluoro-1-(8-fluoroimidazo[1,2-a]pyridin-3-yl)-3,3,4,4-tetramethyl-isoquinoline], the melting point was 156 to 157 °C. Moreover, the inhibition of growth at 20 ppm in data set [1] is at least 80%. The same compound returned an inhibition of growth at 20 ppm in data set [2] of at least 80%. Besides, in the data set on Fusarium culmorum, the inhibition of growth at 20 ppm is at least 80%. Besides, in data set [3], the pest or weed control at 200 ppm is at least 50%. Further, the inhibition of growth at 20 ppm in data set [4] was at least 80%. This compound also showed an inhibition of growth at 20 ppm with Gaeumannomyces graminis of at least 80%.

With `CC1(C)N=C(c2cnc3c(Br)cccn23)c2cccc(F)c2C1(C)C` [Compound E-8, 1-(8-bromoimidazo[1,2-a]pyridin-3-yl)-5-fluoro-3,3,4,4-tetramethyl-isoquinoline], the inhibition of growth at 20 ppm (in [1]; with Fusarium culmorum; in [4]) was at least 80% each time. For the same compound, the pest or weed control at 200 ppm in data set [3] is at least 50%.

Regarding `Cc1cccn2c(C3=NC(C)(C)C(C)(C)c4c(F)cccc43)cnc12` [Compound E-9, 5-fluoro-3,3,4,4-tetramethyl-1-(8-methylimidazo[1,2-a]pyridin-3-yl)isoquinoline], the melting point was 160 to 161 °C. In [1], this compound yielded an inhibition of growth at 20 ppm of at least 80%. In data set [2], this compound gave an inhibition of growth at 20 ppm of at least 80%. Further, the inhibition of growth at 20 ppm in the data set with Fusarium culmorum was at least 80%. Besides, the pest or weed control at 200 ppm in [3] is at least 50%. For the same compound, in [4], the inhibition of growth at 20 ppm was at least 80%. In the data set on Gaeumannomyces graminis, this compound showed an inhibition of growth at 20 ppm of at least 80%.

As to `Cc1ccn2c(C3=NC(C)(C)C(C)(C)c4c(F)cccc43)cnc2c1` [Compound E-31, 5-fluoro-3,3,4,4-tetramethyl-1-(7-methylimidazo[1,2-a]pyridin-3-yl)isoquinoline], the inhibition of growth at 20 ppm (in data set [1]; in the data set on Fusarium culmorum; in [4]) was at least 80% throughout. Moreover, the pest or weed control at 200 ppm in data set [3] is at least 50%.

With `Cc1cccn2c(C3=NC(C)(C)C(C)(C)c4ccccc43)cnc12` [Compound E-33, 3,3,4,4-tetramethyl-1-(8-methylimidazo[1,2-a]pyridin-3-yl)isoquinoline], the inhibition of growth at 20 ppm (in data set [1]; in [2]; in the data set on Fusarium culmorum; in data set [4]) was at least 80% each time. Besides, the pest or weed control at 200 ppm in data set [3] is at least 50%.

As to `Cc1cccn2c(C3=NC(C)(C)C(F)(F)c4ccccc43)cnc12` [Compound E-45, 4,4-difluoro-3,3-dimethyl-1-(8-methylimidazo[1,2-a]pyridin-3-yl)isoquinoline], the inhibition of growth at 20 ppm (in [1]; in data set [2]; in the data set with Fusarium culmorum; in data set [4]) was at least 80% each time. The pest or weed control at 200 ppm in data set [3] is at least 50%.

In turn, `Cc1ccn2c(C3=NC(C)(C)C(C)(C)c4c(F)cccc43)cnc2c1C` [Compound E-50, 1-(7,8-dimethylimidazo[1,2-a]pyridin-3-yl)-5-fluoro-3,3,4,4-tetramethyl-isoquinoline] displayed a melting point of 185 to 186 °C. Also, the inhibition of growth at 20 ppm in data set [1] was at least 80%. The inhibition of growth at 60 ppm in [5] is at least 80%. In addition, the inhibition of growth at 20 ppm with Fusarium culmorum is at least 80%. In addition, in the data set with Sclerotinia sclerotiorum, the inhibition of growth at 20 ppm is at least 80%. The inhibition of growth at 20 ppm in [4] is at least 80%.

Regarding `Cc1cccn2c(C3=NCC(C)(C)c4ccccc43)cnc12` [Compound E-51, 4,4-dimethyl-1-(8-methylimidazo[1,2-a]pyridin-3-yl)-3H-isoquinoline], the inhibition of growth at 20 ppm (in data set [1]; in the data set with Sclerotinia sclerotiorum) was at least 80% each time. In addition, in [5], the inhibition of growth at 60 ppm was at least 80%.

As to `Cc1cccn2c(C3=NC4(CCC4)Cc4ccccc43)cnc12` [Compound E-52, 1-(8-methylimidazo[1,2-a]pyridin-3-yl)spiro[4H-isoquinoline-3,1′-cyclobutane]], the inhibition of growth at 20 ppm (in data set [1]; in data set [2]; in the data set with Sclerotinia sclerotiorum; in data set [4]) was at least 80% in each case. In addition, the inhibition of growth at 60 ppm in data set [5] was at least 80%.

As for `Cc1ccn2c(C3=NC(C)(C)C(F)(F)c4ccccc43)cnc2c1` [Compound E-55, 4,4-difluoro-3,3-dimethyl-1-(7-methylimidazo[1,2-a]pyridin-3-yl)isoquinoline], the inhibition of growth at 20 ppm (in [1]; with Fusarium culmorum; with Sclerotinia sclerotiorum; in data set [4]) was at least 80% throughout. The inhibition of growth at 60 ppm in data set [5] is at least 80%.

In turn, `Cc1cccc2c(C3=NC(C)(C)C(C)(C)c4c(F)cccc43)cnn12` [Compound E-59, 5-fluoro-3,3,4,4-tetramethyl-1-(7-methylpyrazolo[1,5-a]pyridin-3-yl)isoquinoline] registered a melting point of 134 to 136 °C. For the same compound, the inhibition of growth at 20 ppm in data set [1] is at least 80%. For the same compound, the inhibition of growth at 20 ppm in data set [2] was at least 80%. The inhibition of growth at 20 ppm in the data set on Fusarium culmorum was at least 80%. Moreover, the pest or weed control at 200 ppm in data set [3] is at least 50%. Besides, in data set [4], the inhibition of growth at 20 ppm was at least 80%.

`Cc1ccc2c(C3=NC(C)(C)C(C)(C)c4c(F)cccc43)cnn2c1C` [Compound E-63, 1-(6,7-dimethylpyrazolo[1,5-a]pyridin-3-yl)-5-fluoro-3,3,4,4-tetramethyl-isoquinoline]: the melting point lay within 175 to 176 °C. In data set [1], this compound came in with an inhibition of growth at 20 ppm of at least 80%. The inhibition of growth at 60 ppm in data set [5] was at least 80%. For the same compound, the inhibition of growth at 20 ppm with Fusarium culmorum was at least 80%. For the same compound, the pest or weed control at 200 ppm in [3] was at least 50%. Moreover, the inhibition of growth at 20 ppm in data set [4] is at least 80%. In addition, in the data set on Gaeumannomyces graminis, the inhibition of growth at 20 ppm is at least 80%.

Turning to `Cc1cccc2c(C3=NC(C)(C)C(=O)c4ccccc43)cnn12` [Compound E-67, 3,3-dimethyl-1-(7-methylpyrazolo[1,5-a]pyridin-3-yl)isoquinolin-4-one], the melting point fell in the range of 110 to 112 °C. In data set [1], the inhibition of growth at 20 ppm was at least 80%. Further, the inhibition of growth at 20 ppm in [2] was at least 80%. The inhibition of growth at 60 ppm in [5] is at least 80%. Further, the inhibition of growth at 20 ppm in the data set on Fusarium culmorum is at least 80%. In addition, the inhibition of growth at 20 ppm in the data set with Sclerotinia sclerotiorum is at least 80%. Besides, the inhibition of growth at 20 ppm in [4] was at least 80%.

`Cc1ccc2c(C3=NC(C)(C)C(=O)c4c(F)cccc43)cnn2c1C` [Compound E-72, 1-(6,7-dimethylpyrazolo[1,5-a]pyridin-3-yl)-5-fluoro-3,3-dimethyl-isoquinolin-4-one] yielded a melting point of 139 to 141 °C. This compound also returned an inhibition of growth at 20 ppm in [1] of at least 80%. In data set [2], this compound gave an inhibition of growth at 20 ppm of at least 80%. Moreover, the inhibition of growth at 60 ppm in [5] was at least 80%. Further, the inhibition of growth at 20 ppm in the data set with Fusarium culmorum is at least 80%. Also, the inhibition of growth at 20 ppm in the data set with Sclerotinia sclerotiorum was at least 80%. Moreover, in [4], the inhibition of growth at 20 ppm is at least 80%.

In the case of `CC1(C)N=C(c2cnn3cccc(F)c23)c2ccccc2C1(F)F` [Compound E-89, 4,4-difluoro-1-(4-fluoropyrazolo[1,5-a]pyridin-3-yl)-3,3-dimethyl-isoquinoline], the inhibition of growth at 20 ppm (in data set [1]; in [2]; in the data set on Fusarium culmorum; in the data set with Sclerotinia sclerotiorum; in [4]) was at least 80% each time. The inhibition of growth at 60 ppm in [5] is at least 80%.

With `C#Cc1ccc2c(C3=NC(C)(C)C(F)(F)c4ccccc43)cnn2c1` [Compound E-90, 1-(6-ethynylpyrazolo[1,5-a]pyridin-3-yl)-4,4-difluoro-3,3-dimethyl-isoquinoline], the melting point is 145 to 147 °C. Besides, the inhibition of growth at 20 ppm in [2] was at least 80%. For the same compound, the inhibition of growth at 60 ppm in [5] is at least 80%. The compound also gave an inhibition of growth at 20 ppm in [4] of at least 80%. In the data set on Gaeumannomyces graminis, this compound showed an inhibition of growth at 20 ppm of at least 80%.

`COc1cccc2c(C3=NC(C)(C)C(F)(F)c4ccccc43)cnn12` [Compound E-92, 4,4-difluoro-1-(7-methoxypyrazolo[1,5-a]pyridin-3-yl)-3,3-dimethyl-isoquinoline] showed a melting point of 120 to 124 °C. Also, in [1], the inhibition of growth at 20 ppm was at least 80%. The same compound returned an inhibition of growth at 20 ppm in data set [2] of at least 80%. Moreover, in [5], the inhibition of growth at 60 ppm is at least 80%. In addition, in the data set with Fusarium culmorum, the inhibition of growth at 20 ppm was at least 80%. Further, the pest or weed control at 200 ppm in [3] was at least 50%. The same compound had an inhibition of growth at 20 ppm in [4] of at least 80%. Further, the inhibition of growth at 20 ppm in the data set with Gaeumannomyces graminis was at least 80%.

`Cc1ccc2c(C3=NC4(CC4)C4(CC4)c4ccccc43)cnn2c1C` [Compound E-94]: the inhibition of growth at 20 ppm (in data set [2]; in the data set with Fusarium culmorum; in data set [4]; in the data set on Gaeumannomyces graminis) was at least 80% throughout. Besides, the inhibition of growth at 60 ppm in [5] is at least 80%. The pest or weed control at 200 ppm in [3] was at least 50%.

As for `Cc1cccn2ncc(C3=NC4(CC4)C4(CC4)c4ccccc43)c12` [Compound E-95], the inhibition of growth at 20 ppm in [1] and in [4] was at least 80% throughout. The inhibition of growth at 60 ppm in [5] was at least 80%. Also, the pest or weed control at 200 ppm in data set [3] was at least 50%.
